PMC7600266, “Caerin 1 Antimicrobial Peptides that Inhibit HIV and Neisseria May Spare Protective Lactobacilli” (Antibiotics, 2020)
Entries after “also recorded” stand apart in the source; their conditions may differ.

Experiments:
HIV = settings: cited from earlier work; for inhibition of HIV infection, result in words: percent HIV infection of target T cells, 6.25–25 µM, replotted from a previous publication
Source text: Its sequence is shown here for comparison with the synthetically modified caerin 1.1 peptide. Amino acid modifications to the caerin 1.1 and to the caerin 1.9 peptides are shown in bold type with gray shading. […] Thus, we first tested these four peptides for effects on growth of L. rhamnosus. […] To evaluate both parameters at once, we plotted the patterns of inhibition of HIV infection from a previous publication on the same axes as the new data for effects on L. rhamnosus and L. crispatus growth. […] Among all of the ...

bacteria = settings: cited from earlier work; for antibacterial activity, previously shown: control peptides, for caerin 1.3 against most of the bacteria tested
Source text: Its sequence is shown here for comparison with the synthetically modified caerin 1.1 peptide. Amino acid modifications to the caerin 1.1 and to the caerin 1.9 peptides are shown in bold type with gray shading. All of the peptides studied have many simil ...

[1] = system: Lactobacillus crispatus, ATCC 33197; experiment: Bacterial growth assay, Lactobacillus crispatus; format: cell-based; settings: 24 h, 37 °C, O.D. 630 nm; for inhibition of L. crispatus growth at highest concentration: 50 µM peptide, MRS broth; for inhibition of L. crispatus growth at lower concentrations: concentrations of 25 µM or less; for effect on L. crispatus growth, result in words: peptide tested at 0.4 or 0.8 to 50 µM
Experimental: (§1) Bacterial strains were obtained from the American Type Culture Collection (Lactobacillus crispatus, ATCC® 33197™; Lactobacillus rhamnosus, ATCC® 39595™; Neisseria lactamica (ATCC® 23970™). Growth assays were conducted to determine the concentrations at which each peptide inhibited the growth of the three bacterial species. The Lactobacillus bacteria were grown in de Man, Rogosa, and Sharpe (MRS) broth and the N. lactamica in Fastidious Broth. Bacterial cells were cultured in broth for 24 to 48 h until they reached an optical density of about 0.1 O.D. units at 630 nm and diluted to achieve a concentration of 10^6 cells per mL. The peptides were serially diluted with sterile water to reach peptide concentrations of 0.4, 0.8, 1.6, 3.12, 6.25, 12.5, 25, and 50 µM final concentrations in culture. The bacterial cells at 10^6 cells/mL and the peptides were plated in triplicate in a 96-well plate. Included was a negative control for growth (three to five replicates of bacteria plus penicillin-streptomycin), a positive control for growth (three to five replicates of bacteria plus water), and a blank (three to five replicates of broth plus water) to ensure the broth was not contaminated. Bacterial cells were plated in 50 µL of broth, and each dilution of peptides was added in a volume of 50 µL to achieve a total volume of 100 µL. For the positive control, 50 µL of sterile water was added to 50 µL of cells in broth. For the negative control, 50 µL of the antibiotic solution was added to 50 µL of cells in broth. The O.D. of each well was recorded before and after a 24-h incubation period at 37 °C using a Biotek ELx808 reader (Biotek, Winooski, VT, USA). Data for representative experiments are expressed as average O.D. ± standard error of the mean at each peptide concentration. To express data from replicate experiments, the average as percent growth in comparison with the positive (no peptide) control set at 100% for the range of concentrations from 6.25–50 µM is shown. […] A p-value of less than 0.05 was considered significant.

[2] = system: T lymphocytes or endocervical cell lines; settings: cited from earlier work
[3] = system: Lactobacillus rhamnosus, ATCC 39595; experiment: Bacterial growth assay, Lactobacillus rhamnosus; format: cell-based; settings: for inhibition of L. rhamnosus growth at highest concentration: 50 µM peptide (50 µm [sic]), one-way ANOVA with Tukey's post hoc test; for inhibition of L. rhamnosus growth, result in words: peptide tested at 0.4 or 0.8 to 50 µM; for viability as measured by 24-h growth of L. rhamnosus: range of concentrations 0.4–25 µM; for reduction of L. rhamnosus growth: vs no-peptide control
Experimental: as §1

[4] = system: Neisseria lactamica (ATCC 23970); experiment: Bacterial growth assay, Neisseria lactamica; format: cell-based; settings: tested twice; 0.8 to 50 µM; 24 h, 37 °C
Experimental: Bacterial strains were obtained from the American Type Culture Collection (Lactobacillus crispatus, ATCC® 33197™; Lactobacillus rhamnosus, ATCC® 39595™; Neisseria lactamica (ATCC® 23970™). Growth assays were conducted to determine the concentrations at which each peptide inhibited the growth of the three bacterial species. The Lactobacillus bacteria were grown in de Man, Rogosa, and Sharpe (MRS) broth and the N. lactamica in Fastidious Broth. Bacterial cells were cultured in broth for 24 to 48 h until they reached an optical density of about 0.1 O.D. units at 630 nm and diluted to achieve a concentration of 10^6 cells per mL. The peptides were serially diluted with sterile water to reach peptide concentrations of 0.4, 0.8, 1.6, 3.12, 6.25, 12.5, 25, and 50 µM final concentrations in culture. The bacterial cells at 10^6 cells/mL and the peptides were plated in triplicate in a 96-well plate. […] The O.D. of each well was recorded before and after a 24-h incubation period at 37 °C using a Biotek ELx808 reader (Biotek, Winooski, VT, USA). Data for representative experiments are expressed as average O.D. ± standard error of the mean at each peptide concentration. […]

[5] = 25 µM peptide, MRS broth, 24 h, 37 °C, O.D. 630 nm

| Substance | inhibition of HIV (transmission), previous studies (HIV) | antibacterial spectrum (bacteria) | inhibition of HIV infection, result in words (HIV) | inhibition of L. crispatus growth at highest concentration [1] | inhibition of L. crispatus growth at lower concentrations [1] | effect on L. crispatus growth, result in words [1] | toxicity to T lymphocytes or endocervical cell lines [2] | average bacterial growth of L. rhamnosus ([3]; 25 µM peptide, percent growth vs no-peptide control set at 100%, 10^6 cells/mL, MRS broth, 24 h, 37 °C, O.D. 630 nm, average of replicate experiments) | inhibition of L. rhamnosus growth at highest concentration ([3]; 24 h, 37 °C, O.D. 630 nm) | inhibition of L. rhamnosus growth, result in words ([3]; 24 h, 37 °C, O.D. 630 nm) | viability as measured by 24-h growth of L. rhamnosus [3] | reduction of L. rhamnosus growth [3, 5] | antibacterial activity, previously shown (bacteria) | inhibition of N. lactamica growth, comparison in words [4] |
| --- | --- | --- | --- | --- | --- | --- | --- | --- | --- | --- | --- | --- | --- | --- |
| GLLSVLGSVAKHVLPHVVPVIAEHL-NH2 [caerin 1.1, antimicrobial peptide from Litoria caerulea, reference compound] | less effective in the inhibition of HIV transmission than other caerin family peptides | wide-spectrum anti-bacterial agents |  |  |  |  |  |  |  |  |  |  |  |  |
| GLFGVLGSIAKHVLPHVVPVIAEKL-NH2 [caerin 1.9, caerin 1 antimicrobial peptide, origin L. chloris] | very effective inhibitors of HIV | wide-spectrum anti-bacterial agents | best profile of inhibition of HIV | inhibitory | almost no inhibition | least apparent inhibition of growth of both tested lactobacilli | limited toxicity | about 83% | significantly inhibited growth | least apparent inhibition of growth of both tested lactobacilli | remained quite high |  |  |  |
| GLFGVLGSIAKHLLPHVVPVIAEKL-NH2 [caerin 1.9 sm, synthetic analog of caerin 1.9 with a single amino acid change] |  |  | equal or greater inhibition of HIV infection than caerin 1.9 |  |  |  |  |  |  | inhibited the growth of L. rhamnosus more than caerin 1.9; also recorded: inhibited growth to a greater extent than the previous four |  |  |  |  |
| GLLSVLGSVAKHVLPHVVPVIAEKL-NH2 [caerin 1.10, caerin 1 antimicrobial peptide, origin L. splendida] | very effective inhibitors of HIV | wide-spectrum anti-bacterial agents | effective inhibitors of HIV infection | no inhibition |  |  | limited toxicity |  | significantly inhibited growth |  | remained quite high | 40–55% |  |  |
| GLLSSLSSVAKHVLPHVVPVIAEHL-NH2 [caerin 1.4, caerin 1 antimicrobial peptide, origin L. caerulea, L. gilleni; control peptide] |  |  | inhibited HIV less than caerin 1.9 |  |  | largely unaffected; also recorded: very limited inhibition of both species of lactobacilli |  |  |  | very limited inhibition of both species of lactobacilli; also recorded: almost no inhibition at any dose tested |  |  | reduced antibacterial activity |  |
| GLLSVLGSVAKHVLPHVVPVIAAAL-NH2 [caerin 1.1 mod 7, synthetically modified caerin 1.1 peptide] |  |  | equal or greater inhibition of HIV infection than caerin 1.9 |  |  |  |  |  |  | inhibited the growth of L. rhamnosus more than caerin 1.9; also recorded: inhibited growth to a greater extent than the previous four |  |  |  |  |
| GLLSVLGSVAQHVLPHVVPVIAEHL-NH2 [caerin 1.3, caerin 1 antimicrobial peptide, origin L. caerulea; control peptide] |  |  | inhibited HIV less than caerin 1.9 |  |  | largely unaffected; also recorded: very limited inhibition of both species of lactobacilli |  |  |  | very limited inhibition of both species of lactobacilli; also recorded: almost no inhibition at any dose tested |  |  | reduced antibacterial activity |  |
| GLLGVLGSVAKHVLPHVVPVIAEHL-NH2 [caerin 1.2, caerin 1 antimicrobial peptide, origin L. caerulea] | very effective inhibitors of HIV | wide-spectrum anti-bacterial agents | effective inhibitors of HIV infection | inhibitory | almost no inhibition |  | limited toxicity |  | significantly inhibited growth |  | remained quite high | 40–55% |  | less effective against N. lactamica than caerin 1.9 and caerin 1.10 |
| GLFGILGSVAKHVLPHVIPVVAEHL-NH2 [caerin 1.20, caerin 1 antimicrobial peptide, origin L. caerulea/L. splendida] | very effective inhibitors of HIV | wide-spectrum anti-bacterial agents | slightly less effective in the inhibition of HIV |  |  |  | limited toxicity |  | significantly inhibited growth | slightly more inhibitory against L. rhamnosus than caerin 1.9 | remained quite high | 40–55% |  |  |
